Patent US11242335B2, “Fluorine-substituted indazole compounds and uses thereof” (SUNSHINE LAKE PHARMA CO., LTD., priority 2017, dated 2022)

Experiments:
[1] = target: T1, soluble guanylate cyclase (sGC) expressed by CHO-K1-Rat sGC monoclonal cell line (Rattus norvegicus, UniProt P19686+P20595); assay: Effect on recombinant guanylate cyclase reporter cell line (CHO-K1-Rat sGC, Cisbio cGMP HTRF); type: cell-based; settings: activating soluble guanylate cyclase
T1 construct: expressed in transfected cells; host or cells: CHO-K1
T1 sequence (P19686 1-690): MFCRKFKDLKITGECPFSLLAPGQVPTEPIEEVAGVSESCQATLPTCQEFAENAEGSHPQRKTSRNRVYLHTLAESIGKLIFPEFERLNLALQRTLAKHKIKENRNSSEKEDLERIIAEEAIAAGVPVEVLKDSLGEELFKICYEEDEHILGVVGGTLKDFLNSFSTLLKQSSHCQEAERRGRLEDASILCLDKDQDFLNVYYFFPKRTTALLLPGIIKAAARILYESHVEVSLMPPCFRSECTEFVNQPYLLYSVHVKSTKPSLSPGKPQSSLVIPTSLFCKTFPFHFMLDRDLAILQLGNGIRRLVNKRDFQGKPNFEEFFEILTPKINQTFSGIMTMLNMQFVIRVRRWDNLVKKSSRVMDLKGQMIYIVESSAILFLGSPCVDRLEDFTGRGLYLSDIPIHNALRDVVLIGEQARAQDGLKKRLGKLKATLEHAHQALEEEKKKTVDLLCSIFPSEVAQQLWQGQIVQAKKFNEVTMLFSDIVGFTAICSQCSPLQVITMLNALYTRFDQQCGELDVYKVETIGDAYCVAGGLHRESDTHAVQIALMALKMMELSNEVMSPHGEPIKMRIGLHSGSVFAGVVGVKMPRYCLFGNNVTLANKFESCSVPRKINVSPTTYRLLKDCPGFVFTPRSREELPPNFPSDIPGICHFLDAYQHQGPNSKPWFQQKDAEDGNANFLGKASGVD
T1 sequence (P20595 1-619): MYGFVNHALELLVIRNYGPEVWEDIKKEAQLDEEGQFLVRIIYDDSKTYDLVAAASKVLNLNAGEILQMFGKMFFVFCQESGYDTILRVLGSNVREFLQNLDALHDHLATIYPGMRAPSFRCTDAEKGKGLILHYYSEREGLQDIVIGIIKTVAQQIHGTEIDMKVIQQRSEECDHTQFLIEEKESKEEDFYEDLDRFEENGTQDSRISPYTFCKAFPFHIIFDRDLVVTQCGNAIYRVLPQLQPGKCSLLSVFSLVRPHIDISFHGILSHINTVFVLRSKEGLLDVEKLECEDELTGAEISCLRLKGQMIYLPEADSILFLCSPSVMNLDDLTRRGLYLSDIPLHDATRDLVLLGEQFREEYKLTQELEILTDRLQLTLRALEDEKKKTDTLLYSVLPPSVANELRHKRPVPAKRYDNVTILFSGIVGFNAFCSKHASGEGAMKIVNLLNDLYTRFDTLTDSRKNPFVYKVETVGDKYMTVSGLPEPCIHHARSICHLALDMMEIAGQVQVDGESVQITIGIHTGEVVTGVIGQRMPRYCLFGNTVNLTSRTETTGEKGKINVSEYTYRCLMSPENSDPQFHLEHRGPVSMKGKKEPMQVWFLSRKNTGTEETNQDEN
Excerpt: Transfection of Soluble Guanylate Cyclase (sGC) gene into CHO-K1 cells and selection of cells with stably and highly expressed sGC: Rat sGCα1 and Rat sGCβ1 Genes were synthesized, and then pcDNA3.1(+)-rat sGCα1 and pcDNA3.1/Hygro (+)-rat sGCβ1 plasmid were constructed; the plasmid was co-transfected into CHO-K1 cells, and a positive clone cell line stably expressing CHO-K1-Rat sGC was selected using the Cisbio cGMP HTRF assay kit.
The activity of the compound on the CHO-K1-Rat sGC monoclonal cell line was determined: The CHO-K1-Rat sGC monoclonal cell line was cultured, and used for test operation at degree of fusion of about 70% to 90%. The cells were resuspended in complete medium after TrypLE digestion; the cells were inoculated in a 384-well (low volume tissues culture treated) cell culture plate at a seeding density of 7500/well in 25 μL of complete medium and incubated at 37° C. in 5% CO2 atmosphere for 20 hours; the test compounds were dissolved and dilute with DMSO to give 10 concentration gradients (2× working concentration); 384-well cell culture plates were centrifugated (200 g) for 3 seconds by inversion at RT, medium was removed; The test compounds in each different concentration gradient and corresponding reagent were added into each cell well according to the detection process of Cisbio cGMP HTRF assay kit. The data were collected with Envision HTRF detector and the EC50 value of each compound in activating soluble guanylate cyclase was calculated.

[2] = Pharmacokinetics in male SD rats after intravenous and oral administration; type: in vivo; settings: for F: po 5 mg/kg versus iv 1 mg/kg; for AUC(0-t) / Cmax / Tmax / clearance / half-life / Vd: rat, plasma; for Vd: read-out: Vss
Procedure: Preparation of test compound solution: The test compound was formulated with 5% dimethylsulfoxide, 5% Solutol HS 15 and 90% physiological saline to give solution, which was used for oral and intravenous administration.
Male SD rats weighing 190-250 g were randomly divided into two groups, each group had three members; one group received test compound at a dose of 1.0 mg/kg by intravenous injection, the other group received test compound at a dose of 2.5 or 5.0 mg/kg by oral. After dosing, blood samples were collected at time points of 0.0833, 0.25, 0.5, 1.0, 2.0, 4.0, 7.0 and 24 h. Standard curve was plotted based on concentrations of the samples in a suitable range, the concentrations of test compounds in plasma samples were determined by using AB SCIEX API4000 LC-MS/MS in MRM mode. Pharmacokinetic parameters were calculated according to drug concentration-time curve using a noncompartmental method by WinNonLin 6.3 software.

hERG potassium channel = target: T2, hERG potassium channel (Homo sapiens, UniProt Q12809); assay: Inhibition of hERG potassium channel, manual patch clamp in HEK293 cells; type: cell-based; settings: hERG tail current; HEK293 cells overexpressing hERG; whole cell patch clamp; 22-24° C.
T2 construct: expressed in transfected cells; host or cells: HEK293
Procedure: Each compound was weighed and dissolved in DMSO and diluted with DMSO to a serial solution (30, 10, 3.3, 1.1, 0.37 mM). The above serial solutions were diluted to 1000-fold with the extracellular fluid to prepare test solutions (final concentration was 30, 10, 3.3, 1.1, 0.37 μM respectively).
The HEK293 cells that overexpressed the hERG potassium channel were cultured in a 37° C., 5% CO2 incubator, and the culture medium contained DMEM, 15% fetal bovine serum, and 1% penicillin-streptomycin. When the cell density reached 80% of the culture plate, the cells were digested with trypsin/EDTA and transferred to a centrifuge tube, centrifuged at 1000 rpm for 3 minutes, then supernatant was discarded, and the cell culture medium was added. The cells were mixed uniformly by gently blowing and beating. […]
The whole cell recording mode was used to record the channel current in the experiment. Firstly, the extracellular fluid was perfused (approximately 2 mL per minute) and the data were continuous recorded, and the current was kept steady (the current decay was less than 5% in 5 minutes). […] The extracellular fluid containing the test compound was then perfused and the data were continuous recorded until the compound's inhibitory effect on the hERG current reached a steady state, at this time point the peak value of tail current was the current value after dosing. […]

T2 sequence (Q12809 whole entry): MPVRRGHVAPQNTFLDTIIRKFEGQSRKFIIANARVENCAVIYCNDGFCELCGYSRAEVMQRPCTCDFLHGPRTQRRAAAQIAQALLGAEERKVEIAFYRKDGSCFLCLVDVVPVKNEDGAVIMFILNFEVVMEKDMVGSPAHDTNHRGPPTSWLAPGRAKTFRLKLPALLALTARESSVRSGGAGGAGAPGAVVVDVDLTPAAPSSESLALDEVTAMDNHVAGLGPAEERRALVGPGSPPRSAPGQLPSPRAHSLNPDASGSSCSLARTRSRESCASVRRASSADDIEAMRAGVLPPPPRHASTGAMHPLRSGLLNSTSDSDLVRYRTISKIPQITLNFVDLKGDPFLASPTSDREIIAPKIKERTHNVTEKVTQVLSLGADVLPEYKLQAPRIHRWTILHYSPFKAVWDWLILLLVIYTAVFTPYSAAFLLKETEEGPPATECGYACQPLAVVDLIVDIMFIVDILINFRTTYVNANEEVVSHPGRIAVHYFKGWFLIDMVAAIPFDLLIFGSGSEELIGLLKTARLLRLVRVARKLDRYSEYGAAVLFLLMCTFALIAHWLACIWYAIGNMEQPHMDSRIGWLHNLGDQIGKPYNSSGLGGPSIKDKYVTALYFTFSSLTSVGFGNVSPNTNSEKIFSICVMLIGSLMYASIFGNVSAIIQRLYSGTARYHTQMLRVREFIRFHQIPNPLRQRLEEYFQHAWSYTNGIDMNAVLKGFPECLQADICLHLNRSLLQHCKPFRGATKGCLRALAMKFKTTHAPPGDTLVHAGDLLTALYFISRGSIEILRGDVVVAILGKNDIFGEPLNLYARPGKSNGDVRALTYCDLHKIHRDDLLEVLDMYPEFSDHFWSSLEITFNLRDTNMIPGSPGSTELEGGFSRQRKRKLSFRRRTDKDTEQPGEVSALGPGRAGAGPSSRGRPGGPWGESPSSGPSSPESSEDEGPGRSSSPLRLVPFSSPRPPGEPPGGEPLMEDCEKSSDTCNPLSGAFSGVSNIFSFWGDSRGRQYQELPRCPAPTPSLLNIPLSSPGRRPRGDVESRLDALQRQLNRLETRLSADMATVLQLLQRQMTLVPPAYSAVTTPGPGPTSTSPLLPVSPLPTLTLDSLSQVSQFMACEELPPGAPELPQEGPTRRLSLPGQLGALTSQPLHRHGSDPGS

Row | Structure (SMILES) | EC50 [1] | F [2] | AUC(0-t) ([2]; iv, 1 mg/kg) | Cmax ([2]; iv, 1 mg/kg) | Tmax ([2]; iv, 1 mg/kg) | clearance ([2]; iv, 1 mg/kg) | half-life ([2]; iv, 1 mg/kg) | Vd ([2]; iv, 1 mg/kg) | AUC(0-t) ([2]; po, 5 mg/kg) | Cmax ([2]; po, 5 mg/kg) | Tmax ([2]; po, 5 mg/kg) | half-life ([2]; po, 5 mg/kg) | IC50 (hERG potassium channel)
1 | COC(=O)N(C)c1c(N)nc(-c2nn(Cc3ccccc3F)c3c(F)cc(F)cc23)nc1N [Example 2, methyl (4,6-diamino-2-(5,7-difluoro-1-(2-fluorobenzyl)-1H-indazol-3-yl)pyrimidin-5-yl)(methyl)carbamate] | 220 nM | 138.6% | 2020 ng·h/mL | 680 ng/mL | 0.083 h | 6.16 mL/min/kg | 3.7 h | 1.88 L/kg | 14000 ng·h/mL | 1130 ng/mL | 2 h | 3.61 h | –
2 | Nc1nc(-c2nn(Cc3ccccc3F)c3c(F)cccc23)nc(N)c1N1CCCS1(=O)=O [Example 13, 2-(4,6-diamino-2-(7-fluoro-1-(2-fluorobenzyl)-1H-indazol-3-yl)pyrimidin-5-yl)isothiazolidine 1,1-dioxide] | 36 nM | 109.8% | 921 ng·h/mL | 778 ng/mL | 0.083 h | – | 0.916 h | 6.38 L/kg | 5010 ng·h/mL | 1170 ng/mL | 1.67 h | 1.57 h | –
3 | COC(=O)N(C)c1c(N)nc(-c2nn(Cc3ccccc3F)c3c(F)cccc23)nc1N [Example 11, methyl (4,6-diamino-2-(7-fluoro-1-(2-fluorobenzyl)-1H-indazol-3-yl)pyrimidin-5-yl)(methyl)carbamate] | 82 nM | 107.3% | 1220 ng·h/mL | 834 ng/mL | 0.083 h | 13.4 mL/min/kg | 1.37 h | 1.35 L/kg | 6580 ng·h/mL | 1080 ng/mL | 1.67 h | 2.45 h | –
4 | Nc1nc(-c2nn(Cc3ccccc3F)c3c(F)cccc23)nc(N)c1N1CCOC1=O [Example 15, 3-(4,6-diamino-2-(7-fluoro-1-(2-fluorobenzyl)-1H-indazol-3-yl)pyrimidin-5-yl)oxazolidin-2-one] | 300 nM | 86% | 2060 ng·h/mL | 981 ng/mL | 0.083 h | 7.91 mL/min/kg | 5.56 h | 2.03 L/kg | 8860 ng·h/mL | 768 ng/mL | 3 h | 3.13 h | –
5 | COC(=O)Nc1c(N)nc(-c2nn(Cc3ccccc3F)c3cc(F)ccc23)nc1N [Example 5, methyl (4,6-diamino-2-(6-fluoro-1-(2-fluorobenzyl)-1H-indazol-3-yl)pyrimidin-5-yl)carbamate] | – | 93.4% | 10300 ng·h/mL | 2820 ng/mL | 0.083 h | 1.59 mL/min/kg | 4.49 h | 0.483 L/kg | 39700 ng·h/mL | 2690 ng/mL | 3.5 h | 10.9 h | > 30000 nM
6 | COC(=O)N(C)c1c(N)nc(-c2nn(Cc3ccccc3F)c3cc(F)ccc23)nc1N [Example 6, methyl (4,6-diamino-2-(6-fluoro-1-(2-fluorobenzyl)-1H-indazol-3-yl)pyrimidin-5-yl)(methyl)carbamate] | 230 nM | 135.3% | 2700 ng·h/mL | 1310 ng/mL | 0.083 h | 6.18 mL/min/kg | 1.57 h | 1.07 L/kg | 18300 ng·h/mL | 2480 ng/mL | 1.33 h | 2.98 h | –
